The source of these data is patent US20260007678A1, “COMBINATION OF ALLOSTERIC AND ORTHOSTERIC EGFR INHIBITORS FOR THE TREATMENT OF CANCER” (Hoffmann-La Roche Inc., priority 2022, published 2026).

Data set [1] in a line: In vitro metabolic stability, intrinsic clearance in hepatocytes. It is filed as in vitro ADME. The settings on record: primary pooled cryopreserved hepatocytes in suspension. The procedure: The in vitro metabolic stability was assessed in human and […] short-term hepatocytes suspensions. Primary pooled cryopreserved hepatocytes obtained from BioIVT (Westbury, NY, USA) were thawed and suspended in William's E medium supplemented with 10% fetal bovine serum. The suspended hepatocytes were pre-incubated at 37° C. (5% CO2) and reactions were initiated by adding the compound. Final assay conditions were 1 μM compound (final assay solvent concentration 0.01% DMSO), 1×10^6 hepatocytes/mL incubate. The mixtures were then incubated up to 2 hours at 37° C.′ (5% CO2). The reactions were stopped by placing samples on dry ice before storage at −80° C. until analysis by LC-MS/MS. The natural logarithm of the percentage initial drug concentration in the incubation samples was plotted against time and a linear regression analysis was applied using GraphPad Prism version 7.04 for Windows (GraphPad Software, La Jolla, CA) to define the slope. The in vitro hepatocyte intrinsic hepatocyte clearance rate (CLint) was calculated from the slope of the linear regression,-slope, with V representing the volume of the incubation in μL and N as the number of hepatocytes per incubation as detailed in Equation X: […]

For data set [2], the target named is Ba/F3 cell lines stably expressing EGFR^L858R/T790M/C797S (Homo sapiens, UniProt P00533, T790M/C797S/L858R, cells depend on it). Briefly: Cell viability assay (cell titer glo). It is filed as cell-based. The procedure: (§1) NCI-H3255 cells were obtained from the NCI (#CVCL_6831). Cells were maintained in a humidified incubator at 37° C. and 5% CO2. […] Verification of cell line identities and absence of cross-contaminations by other cell lines was performed through Short Tandem Repeats-PCR analysis (only human cell lines) and MALDI-TOF analysis. […] All cell lines were used for no more than 20 passages after thawing for all described experiments.
Plates were incubated for 72 hours at 37° C. After treatment with compounds, 25 μl/well CellTiter-Glo 2.0 reagent (Promega #G9243) were added and plates were incubated for 10 min at RT and luminescence was quantified according to the manufacturer's protocol.
(Cellular ATP, detected with luciferase, serves as a proxy for viable cell number.)

Data set [3] has as its system Ba/F3 EGFR^L858R/C797S allograft. In words: In vivo efficacy, Ba/F3 EGFR^L858R/C797S allograft. Particulars: Example 6 at 10 mpk, Example 3 at 30 mpk, BID po. On the set-up: species or system mice.
In another data set the target is T1, EGFR^L858R/T790M (Homo sapiens, UniProt P00533, L858R/T790M).
T1 construct: expressing WT EGFR, EGFR^L858R or EGFR^L858R/T790M; host or cells: NCI-H1975
Briefly: HTRF cellular assay in human cancer cells H1975. It is filed as cell-based. The settings on record: read-out: IC50 H1975 EGFR LRTM. In general terms: In TR-FRET formats the signal depends on donor and acceptor labels being close together.

Data set [4] has as its system NCI-H1975 NSCLC-derived tumors (EGFR^L858R/T790M xenograft). Briefly: In vivo efficacy, NCI-H1975 xenograft. Particulars: alone and in combination with osimertinib, mice.
Data set [5] has as its target T2, EGFR WT (Homo sapiens, UniProt P00533). Briefly: HTRF cellular assay in human cancer cells H2073. Particulars: EGF 25 ng/ml. In kind it is cell-based. Further details: expressing WT EGFR; host or cells: NCI-H2073.
Another data set concerns the target T3, EGFR^L858R (Homo sapiens, UniProt P00533, L858R).
T3 construct: expressing WT EGFR, EGFR^L858R or EGFR^L858R/T790M; host or cells: NCI-H3255
Briefly: HTRF cellular assay in human cancer cells H3255. It is filed as cell-based. The settings on record: read-out: IC50 H3255 EGFR LR. The procedure: as §1
Control wells with medium only were also prepared. […] Plates were incubated at 37° C. for 4 hours. […] The cells were eventually lysed in HTRF lysis buffer provided by the kit (see below) and stored at −80° C. until further use. HTRF assay for pEGFR (CisBio #64EG1PEH) or pERK (CisBio #64AERPEH) was then performed according to the manufacturer's instructions.

For data set [6], the target named is T2, EGFR WT. Briefly: HTRF cellular assay in human cancer cells A431. In kind it is cell-based. On the set-up: expressing WT EGFR, EGFR^L858R or EGFR^L858R/T790M; #CRL-1555 (A431); host or cells: NCI-H2073; A431. Particulars: EGF 25 ng/ml.
Data set [7] addresses Ba/F3 cell lines stably expressing EGFR^L858R/C797S (Homo sapiens, UniProt P00533, C797S/L858R, cells depend on it). Briefly: Cell viability assay (cell titer glo). Particulars: 72 hours, first value of IC50/IC90. In kind it is cell-based.
The target of data set [8] is T4, EGFR kinase domain (L858R) (Homo sapiens, UniProt P00533, L858R).
T4 construct: osimertinib reacts faster with the EGFR kinase domain (L858R)
Briefly: Binding kinetics measured by stopped-flow fluorescence. An excerpt: FIG. 3 (A) Binding kinetics measured by stopped-flow fluorescence. […].

T2 sequence (P00533 25-1210): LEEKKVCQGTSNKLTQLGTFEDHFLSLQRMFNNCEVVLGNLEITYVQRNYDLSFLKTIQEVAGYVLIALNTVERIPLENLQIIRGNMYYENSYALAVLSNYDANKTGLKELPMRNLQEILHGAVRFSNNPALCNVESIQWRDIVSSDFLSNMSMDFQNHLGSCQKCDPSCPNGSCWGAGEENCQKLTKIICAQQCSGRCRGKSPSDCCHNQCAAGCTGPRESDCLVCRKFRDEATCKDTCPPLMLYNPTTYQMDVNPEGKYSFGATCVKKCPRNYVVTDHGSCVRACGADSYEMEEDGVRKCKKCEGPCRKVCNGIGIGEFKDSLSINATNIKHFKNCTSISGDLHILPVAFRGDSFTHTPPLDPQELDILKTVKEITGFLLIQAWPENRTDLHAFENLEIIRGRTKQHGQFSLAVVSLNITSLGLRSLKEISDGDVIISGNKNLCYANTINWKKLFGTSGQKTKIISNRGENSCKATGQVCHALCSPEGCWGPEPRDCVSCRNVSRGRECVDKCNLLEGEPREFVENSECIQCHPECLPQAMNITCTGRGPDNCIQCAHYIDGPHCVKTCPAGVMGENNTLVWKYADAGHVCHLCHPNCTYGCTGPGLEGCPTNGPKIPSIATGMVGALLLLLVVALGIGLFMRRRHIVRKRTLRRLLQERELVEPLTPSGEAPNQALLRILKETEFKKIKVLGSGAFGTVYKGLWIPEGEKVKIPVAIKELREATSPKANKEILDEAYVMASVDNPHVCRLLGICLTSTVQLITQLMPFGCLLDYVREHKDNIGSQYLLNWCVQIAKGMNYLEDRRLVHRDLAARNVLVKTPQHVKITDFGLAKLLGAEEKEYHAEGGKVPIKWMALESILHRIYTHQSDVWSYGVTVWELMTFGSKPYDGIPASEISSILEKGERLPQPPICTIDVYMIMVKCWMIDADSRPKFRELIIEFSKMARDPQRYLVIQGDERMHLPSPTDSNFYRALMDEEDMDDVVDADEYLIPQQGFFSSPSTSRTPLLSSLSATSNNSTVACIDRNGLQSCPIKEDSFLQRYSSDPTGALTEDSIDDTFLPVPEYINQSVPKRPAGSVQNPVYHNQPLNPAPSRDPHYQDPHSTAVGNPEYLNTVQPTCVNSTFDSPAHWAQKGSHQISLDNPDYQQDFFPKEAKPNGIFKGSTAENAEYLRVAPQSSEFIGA
T4 sequence (P00533 712-979 L858R limits assumed): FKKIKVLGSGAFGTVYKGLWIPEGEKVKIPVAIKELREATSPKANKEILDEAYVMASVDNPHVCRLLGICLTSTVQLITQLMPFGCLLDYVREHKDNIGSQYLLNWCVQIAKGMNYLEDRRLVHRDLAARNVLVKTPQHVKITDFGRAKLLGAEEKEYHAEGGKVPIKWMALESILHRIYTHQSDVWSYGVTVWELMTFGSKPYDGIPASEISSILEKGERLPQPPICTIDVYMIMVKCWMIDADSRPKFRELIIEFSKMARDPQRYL
Ba/F3 cell lines stably expressing EGFR^L858R/T790M/C797S, sequence (P00533 whole entry T790M/C797S/L858R): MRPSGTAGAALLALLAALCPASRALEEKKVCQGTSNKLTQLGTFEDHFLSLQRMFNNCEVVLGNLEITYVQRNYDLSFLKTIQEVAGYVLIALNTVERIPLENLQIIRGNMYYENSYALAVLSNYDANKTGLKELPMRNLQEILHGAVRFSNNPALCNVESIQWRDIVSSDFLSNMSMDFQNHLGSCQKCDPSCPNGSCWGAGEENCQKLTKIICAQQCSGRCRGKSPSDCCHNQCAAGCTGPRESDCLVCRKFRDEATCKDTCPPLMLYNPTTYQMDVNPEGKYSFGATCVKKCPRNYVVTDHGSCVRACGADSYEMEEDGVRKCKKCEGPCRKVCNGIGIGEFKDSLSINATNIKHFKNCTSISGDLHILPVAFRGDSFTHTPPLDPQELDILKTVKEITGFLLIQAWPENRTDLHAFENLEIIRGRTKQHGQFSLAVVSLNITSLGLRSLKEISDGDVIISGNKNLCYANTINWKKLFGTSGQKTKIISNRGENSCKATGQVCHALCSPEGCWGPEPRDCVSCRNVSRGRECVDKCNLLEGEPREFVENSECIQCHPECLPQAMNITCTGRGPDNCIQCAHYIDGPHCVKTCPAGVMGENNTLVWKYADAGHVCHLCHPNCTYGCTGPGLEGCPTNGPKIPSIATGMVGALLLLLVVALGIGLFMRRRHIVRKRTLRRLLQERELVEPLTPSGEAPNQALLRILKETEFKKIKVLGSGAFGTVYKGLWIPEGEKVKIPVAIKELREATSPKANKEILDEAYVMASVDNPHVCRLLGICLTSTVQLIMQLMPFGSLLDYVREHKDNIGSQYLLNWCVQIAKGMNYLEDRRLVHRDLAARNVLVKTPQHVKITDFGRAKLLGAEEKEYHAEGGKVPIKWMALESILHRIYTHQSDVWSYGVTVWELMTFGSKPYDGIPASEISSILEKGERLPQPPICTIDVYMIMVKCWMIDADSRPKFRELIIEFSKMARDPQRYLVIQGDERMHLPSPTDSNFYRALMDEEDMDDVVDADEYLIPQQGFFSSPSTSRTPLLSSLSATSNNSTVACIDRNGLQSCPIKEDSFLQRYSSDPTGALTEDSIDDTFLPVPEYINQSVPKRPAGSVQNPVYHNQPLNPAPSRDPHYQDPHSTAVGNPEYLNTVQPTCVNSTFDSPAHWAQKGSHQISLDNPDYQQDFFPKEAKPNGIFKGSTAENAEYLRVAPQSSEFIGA
T3 sequence (P00533 25-1210 L858R): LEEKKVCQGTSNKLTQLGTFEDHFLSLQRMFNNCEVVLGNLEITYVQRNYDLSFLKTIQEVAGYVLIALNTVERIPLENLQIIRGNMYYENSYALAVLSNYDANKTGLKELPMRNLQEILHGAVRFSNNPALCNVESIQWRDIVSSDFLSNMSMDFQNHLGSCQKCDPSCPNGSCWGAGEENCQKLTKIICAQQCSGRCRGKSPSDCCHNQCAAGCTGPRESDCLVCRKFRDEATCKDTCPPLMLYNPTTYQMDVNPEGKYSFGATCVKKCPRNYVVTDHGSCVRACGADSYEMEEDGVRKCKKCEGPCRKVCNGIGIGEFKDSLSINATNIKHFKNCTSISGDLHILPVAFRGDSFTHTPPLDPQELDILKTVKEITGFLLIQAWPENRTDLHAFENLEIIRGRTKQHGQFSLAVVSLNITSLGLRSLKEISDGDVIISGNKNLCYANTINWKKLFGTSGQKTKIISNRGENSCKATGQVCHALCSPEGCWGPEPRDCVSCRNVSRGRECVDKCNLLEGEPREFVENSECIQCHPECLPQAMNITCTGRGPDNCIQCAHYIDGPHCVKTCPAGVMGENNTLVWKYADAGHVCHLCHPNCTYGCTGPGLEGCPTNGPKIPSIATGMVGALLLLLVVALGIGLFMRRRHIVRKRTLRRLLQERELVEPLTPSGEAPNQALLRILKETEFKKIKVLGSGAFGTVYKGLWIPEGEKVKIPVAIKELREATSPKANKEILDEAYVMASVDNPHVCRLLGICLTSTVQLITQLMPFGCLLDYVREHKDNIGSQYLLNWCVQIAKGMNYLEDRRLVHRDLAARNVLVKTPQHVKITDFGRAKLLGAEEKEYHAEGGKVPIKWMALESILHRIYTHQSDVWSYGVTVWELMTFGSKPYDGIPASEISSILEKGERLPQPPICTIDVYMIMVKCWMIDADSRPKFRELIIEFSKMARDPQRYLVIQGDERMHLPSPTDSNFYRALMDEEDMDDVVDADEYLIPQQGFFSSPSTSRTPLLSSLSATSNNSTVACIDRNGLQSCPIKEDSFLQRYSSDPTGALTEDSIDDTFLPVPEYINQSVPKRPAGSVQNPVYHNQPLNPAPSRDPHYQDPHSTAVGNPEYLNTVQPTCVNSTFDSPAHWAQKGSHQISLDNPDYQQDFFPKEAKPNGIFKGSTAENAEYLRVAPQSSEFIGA
T1 sequence (P00533 25-1210 T790M/L858R): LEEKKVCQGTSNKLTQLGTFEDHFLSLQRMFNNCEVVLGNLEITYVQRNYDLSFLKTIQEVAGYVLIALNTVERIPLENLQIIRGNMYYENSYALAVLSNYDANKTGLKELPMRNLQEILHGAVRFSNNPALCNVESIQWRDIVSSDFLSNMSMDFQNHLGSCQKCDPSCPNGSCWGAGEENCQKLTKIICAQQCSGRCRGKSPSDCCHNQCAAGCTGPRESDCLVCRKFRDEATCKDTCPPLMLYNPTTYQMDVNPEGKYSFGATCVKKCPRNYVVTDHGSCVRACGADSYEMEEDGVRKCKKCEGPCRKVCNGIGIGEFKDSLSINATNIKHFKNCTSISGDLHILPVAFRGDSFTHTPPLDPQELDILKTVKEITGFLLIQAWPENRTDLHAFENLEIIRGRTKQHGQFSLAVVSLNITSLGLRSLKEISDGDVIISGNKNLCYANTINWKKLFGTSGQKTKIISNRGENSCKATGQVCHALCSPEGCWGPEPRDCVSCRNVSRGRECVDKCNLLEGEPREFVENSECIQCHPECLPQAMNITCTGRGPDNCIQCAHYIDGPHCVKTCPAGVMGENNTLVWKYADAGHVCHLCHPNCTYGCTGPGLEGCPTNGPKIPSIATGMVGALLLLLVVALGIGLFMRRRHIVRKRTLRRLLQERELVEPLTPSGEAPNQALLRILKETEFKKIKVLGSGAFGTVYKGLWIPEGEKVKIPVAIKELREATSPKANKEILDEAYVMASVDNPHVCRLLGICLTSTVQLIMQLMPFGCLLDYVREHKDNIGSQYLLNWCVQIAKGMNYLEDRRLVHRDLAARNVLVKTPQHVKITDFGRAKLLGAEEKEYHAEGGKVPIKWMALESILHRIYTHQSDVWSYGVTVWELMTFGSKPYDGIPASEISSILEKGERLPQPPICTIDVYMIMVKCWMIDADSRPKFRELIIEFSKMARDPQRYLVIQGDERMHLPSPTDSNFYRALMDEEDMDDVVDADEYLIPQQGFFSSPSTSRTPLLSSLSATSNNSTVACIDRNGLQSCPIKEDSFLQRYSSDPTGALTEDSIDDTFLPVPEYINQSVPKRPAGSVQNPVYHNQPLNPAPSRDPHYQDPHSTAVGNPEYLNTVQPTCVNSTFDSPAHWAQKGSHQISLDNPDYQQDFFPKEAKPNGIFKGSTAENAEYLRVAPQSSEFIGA

As usually defined, the hepatocyte CLint is the rate of metabolic loss divided by the concentration. Read a high hepatocyte CLint as faster metabolism. `Cc1c(-c2ccc(N3CCOCC3)cc2)cc(C(F)F)c2cn(C(C(=O)Nc3nccs3)c3ncn4c3C[C@@H](F)C4)nc12` (stereo partly drawn) [Example 2, 2-[4-(Difluoromethyl)-7-methyl-6-(4-morpholinophenyl)indazol-2-yl]-2-[(6R)-6-fluoro-6,7-dihydro-5H-pyrrolo[1,2-c]imidazol-1-yl]-N-thiazol-2-yl-acetamide]: the hepatocyte CLint at 1 μM in data set [1] (human) is 6.1 µL/min/1e6 cells; in data set [1] (mouse) it was 21 µL/min/1e6 cells.
One may read the GI50 as the concentration giving 50% growth inhibition. Low values mean more potent growth inhibition, high ones less potent growth inhibition. For the compound `O=C(Nc1nccs1)C(c1cc(F)ccc1O)N1Cc2ccc(-c3ccc(N4CCNCC4)cc3)cc2C1=O` (stereo not shown) [JBJ-04-125-02, reference compound], growth in [2] (72 hours, first value of IC50/IC90) was halved (GI50) at 30 nM. In addition, the IC90 in data set [2] (read-out: Viability IC90 L858R/T790M/C797S, 72 hours, second value of IC50/IC90) came out at 40 nM.
Turning to `Cc1c(C#Cc2ccc(CN3CCC(CO)CC3)cc2)cc(C(F)F)c2cn(C(C(=O)Nc3nccs3)c3ncn4c3CCC4)nc12` (stereo not shown) [Example 5, 2-[4-(Difluoromethyl)-6-[2-[4-[[4-(hydroxymethyl)-1-piperidyl]methyl]phenyl]ethynyl]-7-methyl-indazol-2-yl]-2-(6,7-dihydro-5H-pyrrolo[1,2-c]imidazol-1-yl)-N-thiazol-2-yl-acetamide], the hepatocyte CLint at 1 μM in data set [1] (human) was found to be 2.4 µL/min/1e6 cells; in data set [1] (mouse) it was 36 µL/min/1e6 cells.
Turning to `Cc1c(-c2ccc(N3CCOCC3)cc2)cc(C(F)F)c2cn(C(C(=O)Nc3nccs3)c3ncn4c3CCC43CC3)nc12` (stereo not shown) [Example 3, 2-[4-(Difluoromethyl)-7-methyl-6-(4-morpholinophenyl)indazol-2-yl]-2-spiro[6,7-dihydropyrrol[1,2-c]imidazole-5,1′-cyclopropane]-1-yl-N-thiazol-2-yl-acetamide], in data set [3], the “changes in body weight” value is recorded as “No significant changes in body weight”. In addition, the hepatocyte CLint at 1 μM in [1] (human) stood at 5.9 µL/min/1e6 cells; in data set [1] (mouse), 25 µL/min/1e6 cells.
In general, IC50 refers to the midpoint of a concentration-inhibition curve. For the compound `Cc1c(C#Cc2ccc(CN3CCC(CO)CC3)cc2)cc(C(F)F)c2cn(C(C(=O)Nc3nccs3)c3ncn4c3CCC43CC3)nc12` (stereo not shown) [Example 6], the IC50 is 8 nM at EGFR^L858R/T790M, 545 nM against EGFR WT [5], 16 nM on EGFR^L858R and 577 nM against EGFR WT [6]. Besides, the “changes in body weight” value in [4] and in data set [3] was “No significant changes in body weight” in each case. The values for the intrinsic metabolic clearance (hepatocyte CLint) at 1 μM in [1] (human) and in data set [1] (mouse) were 1 µL/min/1e6 cells and 25 µL/min/1e6 cells, respectively.
In data set [7], `O=C(Nc1nccs1)C(c1ncn2c1CCC2)n1cc2c(F)cc(C#Cc3ccc(CN4CCC(O)CC4)cc3)cc2n1` (stereo not shown) [Example 4, 2-(6,7-Dihydro-5H-pyrrolo[1,2-c]imidazol-1-yl)-2-(4-fluoro-6-((4-((4-hydroxypiperidin-1-yl)methyl)phenyl)ethynyl)-2H-indazol-2-yl)-N-(thiazol-2-yl)acetamide] returned a GI50 of 800 nM.
`O=C(Nc1nccs1)C(c1ncn2c1C[C@@H](F)C2)n1cc2c(Cl)cc(-c3ccc(N4CCOCC4)cc3)c(Cl)c2n1` (stereo partly drawn) [Example 1, 2-[4,7-Dichloro-6-(4-morpholinophenyl)indazol-2-yl]-2-[(6R)-6-fluoro-6,7-dihydro-5H-pyrrolo[1,2-c]imidazol-1-yl]-N-thiazol-2-yl-acetamide]: the IC50 on EGFR^L858R/T790M was 7 nM; against EGFR WT [5], roughly 2000 nM; at EGFR^L858R, 16 nM. For the same compound, in [8] (global fitting of the kinetic data, osimertinib in presence of the allosteric inhibitor), the “increase of the residence time of osimertinib” value is “around 120 fold”. In addition, the “reaction of osimertinib with the EGFR kinase domain (L858R) in presence of the allosteric inhibitor” value in data set [8] (stopped-flow fluorescence) is listed as “reacts faster”. The hepatocyte CLint at 1 μM in data set [1] (human) was 3.5 µL/min/1e6 cells; in data set [1] (mouse), 16 µL/min/1e6 cells.
